Test results reported in ChEMBL document CHEMBL5528049, “Discovery of (4-Pyrazolyl)-2-aminopyrimidines as Potent and Selective Inhibitors of Cyclin-Dependent Kinase 2” (J Med Chem, 2024).
Converted amounts (≈) assume the structure as drawn.

Experiments:
[1] = Oral bioavailability in cynomolgus monkey at 3 mg/kg administered as cassette dose and measured upto 24 hrs by LC-MS/MS analysis; format: ADME, organism-based, Macaca fascicularis; details: in vivo
[2] = Volume of distribution at steady state in cynomolgus monkey at 0.5 mg/kg, iv administered as cassette dose and measured upto 24 hrs by LC-MS/MS analysis; format: ADME, organism-based, Macaca fascicularis; details: in vivo, read-out: Vdss
[3] = Cmax in cynomolgus monkey at 3 mg/kg, po administered as cassette dose and measured upto 24 hrs by LC-MS/MS analysis; format: ADME, organism-based, Macaca fascicularis; details: in vivo
[4] = AUC in cynomolgus monkey at 3 mg/kg, po administered as cassette dose and measured upto 24 hrs by LC-MS/MS analysis; format: ADME, organism-based, Macaca fascicularis; details: in vivo
[5] = Cmax in Sprague-Dawley rat at 3 mg/kg, po administered as cassette dose and measured upto 24 hrs by LC-MS/MS analysis; format: ADME, organism-based; details: in vivo
[6] = Half-life in Sprague-Dawley rat at 0.43 mg/kg, iv administered as cassette dose and measured upto 24 hrs by LC-MS/MS analysis; format: ADME, organism-based; details: in vivo
[7] = Oral bioavailability in Sprague-Dawley rat at 3 mg/kg administered as cassette dose and measured upto 24 hrs by LC-MS/MS analysis; format: ADME, organism-based; details: in vivo
[8] = Solubility of compound in SGF by HPLC analysis
[9] = Intrinsic clearance in human liver microsomes at 1 uM measured upto 30 mins by LC/MS analysis; format: ADME, Microsome; details: read-out: CLH (converted)
[10] = Half-life in cynomolgus monkey at 0.5 mg/kg, iv administered as cassette dose and measured upto 24 hrs by LC-MS/MS analysis; format: ADME, organism-based, Macaca fascicularis; details: in vivo
[11] = Protein binding in human plasma assessed as free fraction incubated for 2 hrs by LC-MS/MS analysis; format: ADME, cell-free
[12] = Hepatic blood flow in Sprague-Dawley rat at 0.43 mg/kg, iv administered as cassette dose and measured upto 24 hrs by LC-MS/MS analysis; format: ADME, organism-based; details: in vivo
[13] = AUC in Sprague-Dawley rat at 3 mg/kg, po administered as cassette dose and measured upto 24 hrs by LC-MS/MS analysis; format: ADME, organism-based; details: in vivo
[14] = Volume of distribution at steady state in Sprague-Dawley rat at 0.43 mg/kg, iv administered as cassette dose and measured upto 24 hrs by LC-MS/MS analysis; format: ADME, organism-based; details: in vivo, read-out: Vdss
[15] = Hepatic blood flow in cynomolgus monkey at 0.5 mg/kg, iv administered as cassette dose and measured upto 24 hrs by LC-MS/MS analysis; format: ADME, organism-based, Macaca fascicularis; details: in vivo
[16] = Apparent permeability from apical to basolateral side in human Caco-2 cells at 50 uM incubated for 120 mins by LCMS analysis
[17] = biological target: CDK6/cyclin D3 (Homo sapiens, UniProt Q00534); experiment: Inhibition of N-terminal GST-tagged human CDK6 (1 to 326 residues)/N-terminal 6-His fused human Cyclin D3 (1 to 292 residues) expressed in Sf9 insect cells incubated for 60 mins by HTRF assay
[18] = biological target: Cyclin-dependent kinase 2 (Homo sapiens, UniProt P24941); experiment: Inhibition of CDK2 in human whole blood spiked with CCNE1-amplified human COV318 cells assessed as reduction in retinoblastoma protein phosphorylation at S780 residue incubated overnight by HTRF microplate reader; format: cell-based
[19] = biological target: Cyclin-dependent kinase 2/cyclin E1 (Homo sapiens, UniProt P24941); experiment: Inhibition of N-terminal GST-tagged full-length human CDK2(1 to 298 residues) /FLAG-tagged human Cyclin E1 (1 to 410 residues) expressed in baculovirus-infected Sf21 cells incubated for 60 mins in presence of ATP by HTRF assay
[20] = biological target: Cyclin-dependent kinase 4/cyclin D1 (Homo sapiens, UniProt P11802); experiment: Inhibition of N-terminal GST-tagged human CDK4 (4 to 303 residues)/N-terminal GST-tagged human Cyclin D1 (4 to 295 residues) expressed in Sf9 insect cells incubated for 60 mins in presence of ATP by HTRF assay
[21] = organism: Homo sapiens; experiment: Selectivity index, ratio of IC50 for inhibition of N-terminal GST-tagged full length human CDK1 (1 to 297 residues)/human Cyclin B1 (1 to 433 residues) expressed in baculovirus infected Sf21 cells to IC50 for inhibition of N-terminal GST-tagged full-length human CDK2(1 to 298 residues) /FLAG-tagged human Cyclin E1 (1 to 410 residues) expressed in baculovirus-infected Sf21 cells
[22] = biological target: Cyclin-dependent kinase 1/cyclin B1 (Homo sapiens, UniProt P06493); experiment: Inhibition of N-terminal GST-tagged full length human CDK1 (1 to 297 residues)/human Cyclin B1 (1 to 433 residues) expressed in baculovirus infected Sf21 cells incubated for 60 mins in presence of ATP by HTRF assay
[23] = biological target: Tyrosine-protein kinase JAK2 (Homo sapiens, UniProt O60674); experiment: Inhibition of JAK2 (unknown origin) incubated for 90 mins in presence of ATP by fluorescence microplate reader

Compound | solubility [8] [µg/mL] | CLint scaled at 1 µM [9] [mL/min/kg] | Papp A→B at 2 h, 50 µM [16] [×10⁻⁶ cm/s] | IC50 [17] [nM] | IC50 [18] [nM] | IC50 [19] [nM] | IC50 [20] [nM] | IC50 [22] [nM] | Ratio IC50 [21] | further results
Cn1cnc(S(=O)(=O)N2CCC(Nc3ncc(C(F)(F)F)c(-c4cnn(CC(F)(F)F)c4)n3)CC2)c1 | 322 (≈ 598 µM) | 10 | 5.4 | – | – | – | – | – | – | bioavailability [1]: 8%; Vd [2]: 0.37 L/kg; Cmax [3]: 778 nM; AUC at 24 h [4]: 7.59 µM·h; Cmax [5]: 813 nM; half-life [6]: 3.3 h; bioavailability [7]: 48%; half-life [10]: 3.2 h; fraction unbound at 2 h [11]: 0.076; QH [12]: 12%; AUC at 24 h [13]: 6.95 µM·h; Vd [14]: 1.4 L/kg; QH [15]: 4.3%
CS(=O)(=O)N1CCC(Nc2ncc(C(F)(F)F)c(-c3cnn(C4CCOCC4)c3)n2)CC1 | – | – | – | – | – | 3.2 | – | 407 | 130 | IC50 [23]: > 10000 nM
CN1CCC(n2cc(-c3nc(NC4CCN(S(C)(=O)=O)CC4)ncc3C(F)(F)F)cn2)CC1 | > 400 | 11.7 | – | 153 | 708 | 6.1 | 20 | 174 | 29 | –
Cn1cnc(S(=O)(=O)N2CCC(Nc3ncc(C#N)c(-c4cnn(CC(F)(F)F)c4)n3)CC2)c1 | 5 (≈ 10.1 µM) | < 8.33 | 0.6 | – | – | – | – | – | – | –
Cn1cc(S(=O)(=O)N2CCC(Nc3ncc(C(F)(F)F)c(-c4cnn(CC(F)(F)F)c4)n3)CC2)cn1 | < 1 | 8.33 | 19 | – | – | – | – | – | – | fraction unbound at 2 h [11]: 0.059

Continued, in another order:

solubility [8] [µg/mL] | CLint scaled at 1 µM [9] [mL/min/kg] | Papp A→B at 2 h, 50 µM [16] [×10⁻⁶ cm/s] | IC50 [17] [nM] | IC50 [18] [nM] | IC50 [19] [nM] | IC50 [20] [nM] | IC50 [22] [nM] | Compound | Ratio IC50 [21] | further results
842 (≈ 1820 µM) | < 8.33 | – | 160 | 1210 | 0.42 | 37 | 63 | CC(C)(O)Cn1cc(-c2nc(NC3CCN(S(C)(=O)=O)CC3)ncc2C(F)(F)F)cn1 | 150 | –
3 (≈ 6.35 µM) | < 8.33 | – | 22 | 709 | 1.8 | 11 | 205 | CS(=O)(=O)N1CCC(Nc2ncc(C(F)(F)F)c(-c3cnn(CC(F)(F)F)c3)n2)CC1 | 110 | –
46 (≈ 94.9 µM) | < 8.33 | – | 31 | 5110 | – | 14 | – | CS(=O)(=O)N1CCC(Nc2ncc(C(F)(F)F)c(-c3cnn(-c4ccccc4F)c3)n2)CC1 | – | –
